The values below come from PMC5632533, “Mechanisms of action and in vivo antibacterial efficacy assessment of five novel hybrid peptides derived from Indolicidin and Ranalexin against Streptococcus pneumoniae” (PeerJ, 2017).

The subject of assay [1] is S. pneumoniae. Put plainly: Transmission electron microscopy (TEM) of treated cells. Format: cell-based, Streptococcus pneumoniae. Particulars: 10^8 CFU/ml in CAMHB; 8 × MIC (125 µg/ml; RN7-IN7 500 µg/ml); 1 h, 37 °C, 5% CO2. How it is done: Bacteria were prepared for TEM according to the guidelines of the Electron Microscopy Unit at the Faculty of Medicine, University of Malaya. S. pneumoniae cultures were grown overnight on Columbia agar with 5% sheep blood and suspended in cationally adjusted Mueller-Hinton broth (CAMHB) at 10^8 CFU/ml. […] Cells in cationally adjusted Mueller-Hinton broth (CAMHB) were used as an untreated control. After an hour of incubation, the pneumococcal cells were centrifuged to discard the medium, washed thrice with 10 mM phosphate buffer saline at pH 7.3 and fixed overnight in 4% (v/v) glutaraldehyde. All samples were washed twice with cacodylate buffer, incubated for 2 h in osmium tetroxide buffer (OsO4 1: 1 cacodylate), washed twice with cacodylate buffer and then incubated overnight in cacodylate buffer. All the samples were washed with distilled water twice and incubated for 10 min with uranyl acetate. After this, all samples were then washed twice with distilled water and dehydrated in an ascending series of ethanol: 35% (10 min), 50% (10 min), 70% (10 min), 95% (15 min), and thrice in 100% ethanol (15 min). After dehydration, samples were incubated with propylene oxide (15 min), propylene oxide 1:1 Epon (1 h), propylene oxide 1:3 Epon (2 h) and finally incubated overnight with Epon. All the samples were embedded in agar 100 resin at 37 °C for 5 hr and maintained at 60 °C until viewing. Reichert Ultramicrotome copper grids 3.05 mm (300 square mesh) (Agar Scientific, Essex, United Kingdom) were used to prepare Ultrathin sections. Ethanol-based uranyl acetate and lead citrate were used to stain the samples for 5 min. Transmission electron microscope (Leo Libra 120) was used to capture the images.

The test system of assay [2] is S. pneumoniae. Put plainly: ATP efflux assay. Format: cell-based, Streptococcus pneumoniae. Particulars: peptides 125 µg/ml (RN7-IN7 500 µg/ml); for ATP released from pneumococcal cells after 3 h / ATP released from pneumococcal cells after 1 h: 1 × 10^7 CFU/ml, luciferin/luciferase, ATP standard curve, mean ± SD, three independent experiments. How it is done:
The amount of ATP released from pneumococcal cells incubated with hybrid peptides was measured as described previously, with a slight modification ([Tanida et al., 2006]). The ATP determination kit (Molecular Probes, Eugene, OR, USA) was used to measure the amount of ATP released based on the luciferin/luciferase method according to the manufacturer’s instructions. Briefly, S. pneumoniae were grown overnight on Columbia agar with 5% sheep blood. Bacterial suspensions were spectrophotometrically adjusted to (1 × 10^7 CFU/ml) and incubated with hybrid peptides RN7-IN10, RN7-IN9, RN7-IN8 and RN7-IN6 at 125 µg/ml and with RN7-IN7 at 500 µg/ml. The amount of ATP released form the pneumococcal cells were measured at three time points 1, 2 and 3 h. The samples were then centrifuged at 5,000 rpm for 5 min, and ATP efflux was subsequently estimated using an ATP standard curve. Values were obtained from three independent experiments. Ceftriaxone and erythromycin were used as positive controls.

For assay [3], the system named is Streptococcus pneumoniae. The settings on record: 30 pneumococcal clinical isolates; earlier study; ref Jindal et al., 2015; cited from earlier work. The text has this: Table 1 Sequences and physicochemical properties of the template and hybrid AMPs. | column: MIC^a || One of the advantageous alternatives to today’s antibiotics is antimicrobial peptides (AMPs) ([Deslouches et al., 2013]; [Sánchez-Vásquez et al., 2013]). AMPs are synthesized by almost all living beings as the first line of defense in their immune system against microbial infection. Many aspects favor AMPs over traditional antibiotics: a broad range of antimicrobial activity against pathogenic micro-organisms (including viruses, parasites, bacteria, and fungi), microbial pathogens are less efficient in developing resistance against AMPs, as killing take place in a short contact time and AMPs c ...

Assay [4] deals with S. pneumoniae (highly virulent strain). Briefly: In vivo antipneumococcal activity, pneumococcal bacteremia (lethal systemic infection) model. Set-up: species or system mice. Particulars: for survival of infected mice up to seven days post-infection: 1.5 × 10^2 CFU/mouse IP, 10 mice; for survival of infected mice, treatment via SC and IN routes: up to seven days post-infection. The method, then: Two pneumococcal infection models developed previously in our lab ([Le et al., 2015]) were used to assess the therapeutic efficacy of peptides in vivo. The systemic infection model was used to mimic pneumococcal bacteremia in humans and the pneumococcal pneumonia model was used to mimic pneumococcal pneumonia in humans. A highly virulent strain was used in both the models. The bacterial isolate was grown overnight on Columbia agar with 5% sheep blood at 37 °C under 5% CO2. The bacterial suspension was adjusted to OD625 0.08-0.1 (1 ∼ 2 × 10^8 CFU/ml). Mice tested for lethal systemic infection were inoculated with 1.5 × 10^2 CFU/mouse (100 μl) via IP route. Mice used to assess the Pneumococcal pneumonia model were inoculated with pneumococcal cells of 5 × 10^3 CFU/mouse (50 μl) via the intrathoracic route.
After 1 hr of inoculation, Mice receiving treatment were randomized and divided into six groups. RN7-IN10 and RN7-IN8 were tested at three different doses for each (5 mg/kg, 10 mg/kg and 20 mg/kg) using a group of 10 mice. Graded doses of ceftriaxone (5 mg/kg, 10 mg/kg, […], 40 mg/kg and 80 mg/kg) were also tested to assess the in vivo antibacterial activity of this antibiotic. Only mice injected with PBS were served as uninfected control. Mice injected with bacterial inoculum were used as untreated control group and given sterile distilled water only. Survival of mice was documented for seven days or until death. After seven days, the experiment was ended, the blood and homogenates of the five major organs (kidney, brain, spleen, liver and lung) of the surviving mice were plated on Columbia agar with 5% sheep blood, to detect the presence of pneumococcal cells. […]

Where [5] appears, read: treatment IP 5 mg/kg (peptides at 1 h, 12 h, 24 h post-infection).
Where [6] appears, read: treatment IP 10 mg/kg (peptides at 1 h, 12 h, 24 h post-infection).
Where [7] appears, read: treatment IP 20 mg/kg (peptides at 1 h, 12 h, 24 h post-infection).

Turning to “FLGGLIKKWPWWPWRR-NH2 [RN7-IN9, hybrid peptide of ranalexin (residues 1-7) and indolicidin (residues 5-13)]”, the “TEM: detachment of cell wall from cell membrane” value (“TEM: detachment of cell wall” for short) in assay [1] was “partial disconnection of the cell wall from the cell membrane”. Moreover, the “ATP released from pneumococcal cells after 3 h” value (shortened to “ATP released … after 3 h”) in assay [2] is 22.9 ± 3.22 pM. In addition, the “MIC, minimum inhibitory concentration” value in assay [3] is 7.81 to 15.62 µg/mL.

Turning to “FLGGLIKWKWPWWPWRR-NH2 [RN7-IN10, hybrid peptide of ranalexin (residues 1-7) and indolicidin (residues 4-13)]”, in assay [2], the “ATP released from pneumococcal cells after 1 h” value (shortened to “ATP released … after 1 h”) was 54.5 ± 4.7 pM and the “ATP released … after 3 h” value was determined as 25.42 ± 3.51 pM. In assay [2] (raw data sheet, mean of 3), the “ATP released, Average 1hr” value was 54.4965 pM; the “ATP released, Average 2hr” value was determined as 41.9293 pM; the “ATP released, Average 3hr” value came to 25.4295 pM. The “survival of infected mice up to seven days post-infection” value (from here on “survival of infected mice up”) in assay [4] (setting [5]) is “failed to treat any of the infected mice”. In addition, the “survival of infected mice up” value in assay [4] (setting [6]) amounted to 10%. The “survival of infected mice up” value in assay [4] (setting [7]) was determined as 30%. Moreover, in assay [4], the “survival of infected mice, treatment via SC and IN routes” value is “none of the mice survived”. For the same substance, the “MIC, minimum inhibitory concentration” value in assay [3] was 7.81 to 15.62 µg/mL.

As for “FLGGLIKWPWWPWRR-NH2 [RN7-IN8, hybrid peptide of ranalexin (residues 1-7) and indolicidin (residues 6-13)]”, the “TEM: detachment of cell wall” value in assay [1] is listed as “partial disconnection of the cell wall from the cell membrane”. Moreover, in assay [2], the “ATP released … after 1 h” value is given as 39.03 ± 0.2 pM. For the same substance, the “ATP released … after 3 h” value in assay [2] is on record as 20.54 ± 1.03 pM. In addition, the results for the “survival of infected mice up” value in assay [4] (setting [5]), in assay [4] (setting [6]) and in assay [4] (setting [7]) were “failed to treat any of the infected mice”, 30% and 50%, respectively. Further, the “survival of infected mice, treatment via SC and IN routes” value in assay [4] was “none of the mice survived”. The “MIC, minimum inhibitory concentration” value in assay [3] is 7.81 to 15.62 µg/mL.

For “FLGGLIKWWPWRR-NH2 [RN7-IN6, hybrid peptide of ranalexin (residues 1-7) and indolicidin (residues 8-13)]”, the “TEM: detachment of cell wall” value in assay [1] was “partial disconnection of the cell wall from the cell membrane”. Further, in assay [2], the “ATP released … after 1 h” value is 14.8 ± 0.35 pM and the “ATP released … after 3 h” value was found to be 11.47 ± 0.32 pM. In addition, the “MIC, minimum inhibitory concentration” value in assay [3] is 7.81 to 15.62 µg/mL.
